Measurements published in patent US8470772B2, “Leptin agonist and methods of use” (Temple University—Of The Commonwealth System of Higher …, priority 2008, dated 2013).
Non-standard residues stand in square brackets, D forms with d. No end group written: not given here. *: point of attachment. βGlc = OC[C@H]1O[C@@H](*)[C@H](O)[C@@H](O)[C@@H]1O; Tyr(3,5-I2) = N[C@@H](Cc1cc(I)c(O)c(I)c1)C(=O)O; Dap = NC[C@H](N)C(=O)O

Legend:
MCF-7 cells = assay: MCF-7 cell stimulation (cell growth) assay, cell counts by trypan blue exclusion; assay type: cell-based, human; details: for MCF-7 cell count increase: no leptin
From the text: For the evaluation of the biological activity of the synthesized leptin Site III peptide fragments, human cell lines were selected in which the ObR expression level is known. Two ObR-positive human cell models were used: MCF-7 breast cancer cells and DU-45 prostate cancer cells. Both cell lines express ObR, and leptin and leptin analogues stimulate their growth (C. Garofalo, et al., Clin. Cancer Res., 2004, 10, 6466-6475; C. Garofalo, et al., Clin. Cancer Res., 2006, 12, 1447-1453). Normal mammary epithelial MCF-10 cells lacking ObR were used as a negative control (X. Hu, et al., J. Natl. Cancer Inst., 2002, 94, 1704-1711).
Biological activity of the Site III peptides was assayed as follows. MCF-7 cells were stimulated with 6 nM full-sized leptin. The smaller leptin fragments and analogs were added to the cell culture at a concentration of 10 nM, 100 nM or 1 μM. Leptin at […] concentration stimulated MCF-7 cell growth by approximately 40%, in line with previous observations (C. Garofalo, et al., Clin. Cancer Res., 2004, 10, 6466-6475). All Site III peptides bound to the extracellular domain of ObR as documented by dot-blot or Western-blot analysis. […] In fact, it reversed leptin induced stimulation of MCF-7 cells at as low as 10 nM peptide concentration, with an additional 50% reduction in cell counts at 1 μM. When the assay was run at a more reliably measurable 1 μM peptide concentration, a consistent 6% decrease in cell numbers could be observed compared to the leptin only samples. In summary, in the presence of exogenously added full-sized leptin these assays verified the strong antagonist activity of the Site III Ala,Ala mutant.
The cell stimulation activity of the Site III peptides was assayed as follows. Human leptin was purchased from R&D Systems and used at a concentration of 100 ng/mL (approximately 6 nM). MCF-7 and DU-45 cells naturally expressing ObR were grown in a standard medium DMEM:F12 plus 5% fetal bovine serum. MCF-10 was grown in serum-free mammalian epithelial growth medium supplemented with 100 ng/mL cholera toxin. Seventy percent confluent cultures were synchronized in serum-free medium (DMEM plus 10 μM FeSO4, plus 0.5% albumin) for 24 h and then treated with leptin and/or peptides (different doses) for 5 days. Cell counts before and after treatment were determined by counting the cells using trypan blue exclusion. All assays were conducted in triplicate and repeated at least twice.

ObR extracellular domain = target: T1, ObR extracellular domain (Homo sapiens, UniProt P48357); assay: Dot-blot and ELISA-type solid-phase binding assay; details: dot-blot, Western-blot or ELISA; 10 and 20 μg peptide load in ELISA
T1 construct: human IgG Fc-conjugated ObR extracellular domain (R&D Systems); purchased R&D Systems
T1 sequence (P48357 22-839 limits assumed): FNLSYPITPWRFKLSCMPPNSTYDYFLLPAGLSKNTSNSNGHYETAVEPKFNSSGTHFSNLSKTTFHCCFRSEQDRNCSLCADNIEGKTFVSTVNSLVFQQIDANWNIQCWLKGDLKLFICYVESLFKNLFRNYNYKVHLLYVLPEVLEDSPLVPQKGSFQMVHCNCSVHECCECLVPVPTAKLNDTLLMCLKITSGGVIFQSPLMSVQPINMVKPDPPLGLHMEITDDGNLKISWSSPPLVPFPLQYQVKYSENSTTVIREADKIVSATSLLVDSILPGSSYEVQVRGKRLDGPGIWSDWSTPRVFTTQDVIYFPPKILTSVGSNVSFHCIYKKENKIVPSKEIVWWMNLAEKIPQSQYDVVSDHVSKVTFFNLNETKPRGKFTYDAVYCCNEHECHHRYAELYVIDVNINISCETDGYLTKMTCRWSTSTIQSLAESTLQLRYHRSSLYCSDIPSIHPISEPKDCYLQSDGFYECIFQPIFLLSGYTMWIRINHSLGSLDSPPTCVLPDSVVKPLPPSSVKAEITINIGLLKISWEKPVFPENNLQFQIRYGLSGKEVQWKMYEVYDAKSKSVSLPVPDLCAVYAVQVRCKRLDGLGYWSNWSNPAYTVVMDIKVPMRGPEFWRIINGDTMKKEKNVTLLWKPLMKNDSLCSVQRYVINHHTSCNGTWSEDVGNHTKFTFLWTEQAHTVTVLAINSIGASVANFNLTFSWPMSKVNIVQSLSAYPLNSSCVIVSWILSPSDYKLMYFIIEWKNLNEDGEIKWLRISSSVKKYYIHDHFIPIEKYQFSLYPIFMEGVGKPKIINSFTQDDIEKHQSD
Procedure: For dot-blot and ELISA assays, the leptin fragments were dissolved in electroblot transfer buffer (25 mM Tris and […] buffer containing 20% methanol) and were applied to either a nitrocellulose membrane or dried upon ELISA plates (Otvos, L., Jr., and Szendrei, G. I. (1996) Enzyme-linked immunosorbent assay of peptides. In: Neuropeptide Protocols (G. B. Irvine and C. H. Williams, eds.). Humana Press, Totowa, N.J., pp. 269-275). The solid surfaces were blocked with 5% BSA in a PBS-0.5% Tween 20 buffer (PBST) for 3 hours at room temperature and were subsequently incubated with 10 μg/mL solution of human IgG Fc-conjugated ObR extracellular domain (R&D Systems) dissolved in Tris-buffered saline-0.1% Tween 20 buffer (TBST) containing 1% bovine serum albumin (BSA) for 1 hour. A monoclonal goat antibody (Santa Cruz Biotechnology), specific for the N-terminus of human ObR, was added to the assay mixture, followed by addition of a horseradish peroxidase(HRP)-conjugated anti-goat IgG donkey antibody for the dot-blot assay, and HRP-conjugated anti-goat Fc mouse antibody for ELISA assay (used at a 1:15,000 dilution in PBST and 1% BSA). Between reagents, the solid surfaces were washed extensively with PBST. After washing with PBST, the membrane was treated with a chemiluminescence luminol oxidizer (NEN) for 1 min. The resultant chemiluminescence was exposed to a X-Omat blue XB-1 film (Kodak) for 10 seconds, and the exposed film was developed. The ELISA was developed using an HRP ELISA kit including tetramethylbenzidine as a substrate and sulfuric acid as a stop solution. Optical absorbance values were read at 490 nm using a microplate reader.

[1] = In vivo biodistribution of DY675-labeled peptide by fluorescence imaging; details: intraperitoneal, female Balb/c mice, up to 65 minutes
Procedure: E1Free peptide was co-synthesized with the near-infrared absorbing fluorescent dye DY675 and the resultant labeled peptide was purified by RP-HPLC. Forty microgams of the peptide was injected intraperiotoneally into shaved and isoflurane anesthesized female Balb/c mice. For imaging of the biodistribution of the peptide, the animals were placed into a fluorescence microscope chamber under continuous isoflurane exposure. Fluorescence exposure pictures were taken with an IVIS microscope set to a 695 nm emission wavelength. Images were obtained once a minute for the first ten minutes after peptide addition and every five minutes afterwards, until a 65 minute stop point was reached.

Tyr(I2)-Serβ(Glc)-Thr-Glu-Va1-Va1-Ala-Leu-Ser-Arg-Leu-Dap(Ac) ([Tyr(3,5-I2)]S(βGlc)TEVVALSRL[Dap](Ac)-NH2) [E1Free]
MCF-7 cell count increase (MCF-7 cells; 100 nM peptide): 81% | further increase of leptin-induced cell stimulation (MCF-7 cells; 1000 nM peptide, in the presence of 6 nM leptin): 84% | MCF-7 cell count increase (MCF-7 cells; 1000 nM peptide): 114% | overall agonist character on cells expressing ObR (MCF-7 cells; in the presence and absence of leptin): full agonists | binding to the extracellular domain of ObR (ObR extracellular domain): bound | biodistribution [1]: localizes in the head, as well as the kidneys and liver
